# Experimental data reported in patent publication US8784860B2 (Cordis Corporation, priority 2005, dated 2014).
# “Also recorded” adds a separate entry of the source.
# Key:
# [1] = Liquid formulations: drug concentration by liquid chromatography and visual observation; type: physicochemical; details: water, ethanol less than two percent, Vitamin E TPGS
# Method: The concentrations of each constituent were determined by liquid chromatography and are presented as weight by volume figures.
# The liquid formulation was created utilizing the following process. Two hundred milligrams of sirolimus and two grams of ethanol were added to a pre-weighed twenty milliliter scintillation vial. The vial was vortexed and sonicated until the sirolimus was completely dissolved. Approximately six hundred milligrams of Vitamin E TPGS was then added to the solution of ethanol and sirolimus. The vial was vortexed again until a clear yellowish solution was obtained. Nitrogen gas was then used to reduce the amount of ethanol in the vial to approximately two hundred twenty-nine milligrams. In a separate vial, three hundred milligrams of Vitamin E TPGS was dissolved in eleven milliliters of purified water while undergoing vortexing. The Vitamin E TPGS and water solution was then added to the first vial containing the sirolimus, Vitamin E TPGS and ethanol. The first vial was then vortexed vigorously and continuously for three minutes.
# In another exemplary embodiment, a liquid formulation of CCI-779, a sirolimus analog, is prepared utilizing ethanol, Vitamin E TPGS and water. This liquid formulation was made under similar conditions as to that described above. […]
# [2] = test system: human coronary artery smooth muscle cell; details: concentrations 6.6 nanomolar up to 30,000.00 nanomolar
# From the text: In vitro cytotoxicity tests or assays may be utilized to determine if drugs, agents and/or compounds are potentially toxic and the level of toxicity. Essentially, in vitro cytotoxicity assays determine acute necrotic effects by a drug causing direct cellular damage. The idea behind these assays is that toxic chemicals affect basic functions of cells which are common to all cells. […] There are a number of different assays that may be utilized. In the present invention, the cytotoxicity assay utilized is based upon the measurement of cellular metabolic activity. A reduction in metabolic activity is an indication of cellular damage. Tests that can measure metabolic function measure cellular ATP levels or mitochondrial activity via MTS metabolism. FIG. 69 is a graphical representation of the results of an MTS assay of Panzem®.
# [3] = test system: human coronary artery smooth muscle cells; assay: Anti-proliferative activity in synchronized cultured coronary artery smooth muscle cells, two percent fetal bovine serum; type: cell-based
# From the text: (§1) The multiple curves represent various concentrations of topotecan ranging from zero to three hundred nanomolar concentrations.
# (§2) The multiple curves represent various concentrations of etoposide ranging from zero to eight hundred nanomolar concentrations.
# Referring to FIG. 66, there is illustrated, in graphical format, the anti-proliferative activity of Panzem® in synchronized cultured human coronary artery smooth muscle cells stimulated with two percent fetal bovine serum.
# The multiple curves represent various concentrations of Panzem® ranging from zero to 100 micromolar concentrations.
# bovine blood = assay: In vitro bovine blood loop model (In 111 labeled platelets); details: sirolimus/cilostazol coated stents versus control
# From the text: The anti-thrombotic efficacy of the above-described three configurations is illustrated in FIG. 80. FIG. 80 illustrates the anti-thrombotic properties of the sirolimus/cilostazol combination coatings described above in an in vitro bovine blood loop model. In the in vitro bovine blood loop model, fresh bovine blood is heparinized to adjust for acute clotting time (ACT) of about two hundred (200) seconds. The platelet content in the blood is labeled through the use of Indium 111. In the study, a stent is deployed in a silicone tube, which is part of a closed loop system for blood circulation. The heparinzed blood is circulated through the closed loop system by means of a circulating pump. Blood clots and thrombus builds up on a stent surface over time and reduces the flow rate of blood through the stented loop. […] The control drug eluting stent is the Cypher® sirolimus eluting coronary stent available from Cordis Corporation. Bar 8004 is a stent coated with heparin and is available from Cordis Corporation under the […]® on the Bx Velocity® coronary stent trademark. Bar 8006 is a stent configured as set forth with respect to the architecture illustrated in FIG. 75. Bar 8008 is a stent configured as set forth with respect to the architecture illustrated in FIG. 77. Bar 8010 is a stent configured as set forth with respect to the architecture illustrated in FIG. 79.
# [4] = Porcine pharmacokinetics studies: in vivo release kinetics from stent coatings; details: for drug remained in the drug coating: after eight (8) days of implantation, porcine, single layer sirolimus + cilostazol in EVA/BMA, 100 μg BMA overcoat (FIG. 83)
# From the text: The topcoat is two hundred micro grams.
# FIG. 61 is a graphical representation of the in vivo release kinetics of cladribine from a polymeric coating on Bx Velocity® stents, available from Cordis Corporation, implanted in a Yorkshire pig. The basecoat comprises an 85/15 ratio of PVDF and HFP and cladribine for a total combined weight of one thousand eight hundred micrograms (cladribine comprising thirty percent of the total weight). The topcoat comprises an 85/15 ratio of PVDF/HFP and no cladribine. The total weight of the topcoat is three hundred micrograms.
# (§3) The basecoat is applied to Bx Velocity® stents and implanted into Yorkshire pigs.
# as §3
# Another critical parameter for the performance of the thrombus resistance of a device coated with cilostazol is the duration of the drug release from the coating. This is of particular significance in the two weeks after device implantation. […] The purpose of the porcine PK study is to assess the local pharmacokinetics of a drug eluting stent at a given implantation time. Normally three stents are implanted in three different coronary arteries in a pig for a given time point and then retrieved for total drug recovery analysis. The stents are retrieved at predetermined time points; namely, 1, 3 and 8 days. The stents are extracted and the total amount of drug remaining on the stents is determined by analysis utilizing HPLC (high performance liquid chromatography) for total drug amount. The difference between the original amount of drug on the stent and the amount of drug retrieved at a given time represents the amount of drug released in that period. The continuous release of drug into surrounding arterial tissue is what prevents the neointimal growth and restenosis in the coronary artery. A normal plot represents the percentage of total drug released (%, y-axis) vs. time of implantation (day, x-axis). […] Curve 8102 represents cilostazol and curve 8104 represents sirolimus. […] In this exemplary configuration, the stent 8300 is coated with two layers. The first layer 8302 comprises a combination of sirolimus, cilostazol and a copolymer matrix of EVA/BMA. The second layer or diffusion overcoat 8304 comprises only BMA. More specifically, in this embodiment, the first layer 8302 comprises a combination of sirolimus and cilastazol that is forty-five (45) percent by weight of the total weight of the first layer 8302 and an EVA/BMA copolymer matrix that is fifty-five (55) percent by weight of the total weight of the first layer 8302. The diffusion overcoat comprises one hundred (100 μg) micrograms of BMA.
# [5] = In vitro release kinetics from stent coatings; type: physicochemical; details: for in vitro release rate of cladribine, effect of topcoat: twenty-five percent ethanol/water, room temperature
# [6] = test system: human smooth muscle cells; assay: Cladribine Example: PDGF-stimulated proliferation of smooth muscle cells; type: cell-based; details: from IC50 values 23 and 40 nanomolar
# Method: To assess the ability of cladribine to prevent cell proliferation, human smooth muscle or endothelial cells (Clonetics, Walkersville, Md.) were seeded at a density of 2000 cells/cm^2 (approximately 3600 cells/well) into each well of 12-well plates and cultured with 1.5 ml of growth medium containing five percent fetal calf serum (FCS). After twenty-four hours, the growth medium was changed and fresh medium containing 10 ng/ml platelet-derived growth factor AB (PDGF AB; LIFE Technologies), as well as various concentrations of cladribine (0.001-10,000 nM) were added with triplicate wells. Medium was replaced with fresh cladribine-containing medium after three days. On day six, cells were detached by trypsinization to yield a cell suspension, lightly centrifuged to pellet and then counted manually using a Neubauer hemocytometer system. Cell viability was assessed by trypan blue exclusion.
# [7] = test system: human coronary artery smooth muscle cells; assay: Anti-proliferative activity in non-synchronized cultured coronary artery smooth muscle cells, two percent fetal bovine serum; type: cell-based
# From the text: The multiple curves represent various concentrations of mycophenolic acid ranging from zero to one thousand nanomolar concentrations.
# FIG. 58 illustrates, in graphical format, the anti-proliferative activity of cladribine in non-synchronized cultured human coronary artery smooth muscle cells stimulated with two percent fetal bovine serum.
# The multiple curves represent various concentrations of cladribine ranging from zero to nine hundred nanomolar concentrations.
# cell viability = assay: Cell viability assay; type: cell-based
# From the text: as §1, §2
# tumor cell lines = tumor cell lines (Woo et al., 2002); cited from earlier work
# [8] = test system: human coronary artery smooth muscle cell; assay: In vitro cell culture study of coronary artery smooth muscle cell proliferation (trichostatin A); type: cell-based
# From the text: FIG. 51 is a graph of the inhibition of coronary artery smooth muscle cells by trichostatin A in a cell culture study.
# [9] = 600 μg EVA/BMA basecoat with 30% rapamycin and 30% mycophenolic acid, no, 100 or 200 μg BMA topcoat
compound,measurement,setting,value
CO[C@H]1C[C@@H]2CC[C@@H](C)[C@@](O)(O2)C(=O)C(=O)N2CCCC[C@H]2C(=O)O[C@H]([C@H](C)C[C@@H]2CC[C@@H](OC(=O)C(C)(CO)CO)[C@H](OC)C2)CC(=O)[C@H](C)/C=C(\C)[C@@H](O)[C@@H](OC)C(=O)[C@H](C)C[C@H](C)/C=C/C=C/C=C/1C [CCI-779],concentration of CCI-779 in the final solution (HPLC),[1],15000 µg/mL
"COc1cc2c(cc1O)CC[C@@H]1[C@@H]2CC[C@]2(C)[C@@H](O)CC[C@@H]12 [Panzem®, 2-methoxyestradiol]","cytotoxicity, MTS assay",[2],do not reduce human coronary artery smooth muscle cell survival
same,effect of Panzem on the anti-proliferative activity of rapamycin,[3]; Panzem 0.813 to 100 micromolar added to rapamycin,potentiation of rapamycin by Panzem®; also recorded: increases the percent of inhibition of rapamycin alone
same,anti-proliferative activity (single agent),"[3]; synchronized human coronary artery smooth muscle cells, two percent fetal bovine serum",extremely effective inhibitor of human coronary artery smooth muscle cell proliferation in vitro
"O=C1CCc2cc(OCCCCc3nnnn3C3CCCCC3)ccc2N1 [cilostazol, 6[4-(1-cyclohexyl-1H-tetrazol-5-yl)-butoxy]-3,4-dihydro-2-(1H)-quinolinone]",thrombus formation,bovine blood,significantly reduces thrombus formation
same,drug remained in the drug coating,[4],~80%
same,"in vitro drug release rate, 200 μg versus 100 μg BMA diffusion overcoat",[5]; layered sirolimus/cilostazol coatings of FIGS. 75 and 77,comparatively slower from the configuration comprising the thicker diffusion overcoat of BMA
same,in vitro release,"[5]; single layer sirolimus + cilostazol in EVA/BMA, 100 μg BMA overcoat (FIG. 83)",~35%
"Nc1nc(Cl)nc2c1ncn2[C@H]1C[C@H](O)[C@@H](CO)O1 [cladribine, 2-chlorodeoxyadenosine]",potency as inhibitor of smooth muscle cells relative to endothelial cells,[6],approximately twice
same,in vivo elution of cladribine,"[4]; Bx Velocity stent, Yorkshire pig, 1800 μg PVDF/HFP (85/15) basecoat with 30% cladribine, 300 μg topcoat","after the first day, the elution of cladribine levels off significantly"
same,in vivo elution of cladribine compared with rapamycin,"[4]; EVA/BMA basecoat, 200 μg BMA topcoat, Yorkshire pigs",elutes more rapidly than rapamycin
same,effect of cladribine on the anti-proliferative rapamycin dose response curves,[7]; cladribine 56.25 to 900 nanomolar added to rapamycin,potentiate the anti-proliferative activity of rapamycin; also recorded: increases the percent inhibition of rapamycin alone
same,inhibition of human coronary artery smooth muscle cell proliferation,"[7]; non-synchronized cells, two percent fetal bovine serum",completely inhibits
same,"in vitro release rate of cladribine, effect of topcoat",[5]; non-sterile PVDF/HFP (85/15) coatings,increase in topcoat weight or thickness led to a decrease in the release rate of cladribine
same,"in vitro release rate of cladribine, effect of topcoat",[5]; sterile PVDF/HFP coating,drastic decrease of release rate of cladribine
COc1cc([C@@H]2c3cc4c(cc3[C@@H](O[C@@H]3O[C@@H]5CO[C@@H](C)O[C@H]5[C@H](O)[C@H]3O)[C@H]3COC(=O)[C@H]23)OCO4)cc(OC)c1O [etoposide],cytotoxicity in cell viability assay,cell viability; concentrations up to ten micromolar,non-cytotoxic
same,effect of etoposide on the anti-proliferative rapamycin dose response curves,[3]; etoposide 255.7 to eight hundred nanomolar added to rapamycin,potentiate the anti-proliferative activity of rapamycin; also recorded: increases the percent inhibition of rapamycin alone
COc1c(C)c2c(c(O)c1C/C=C(\C)CCC(=O)O)C(=O)OC2 [mycophenolic acid],"in vivo release of mycophenolic acid, effect of topcoat",[4]; [9],BMA topcoat does slow the release of mycophenolic acid
same,in vivo elution of mycophenolic acid compared with rapamycin,"[4]; EVA/BMA basecoat, BMA topcoat",elutes more completely over a shorter duration than the rapamycin
same,effect of mycophenolic acid on the anti-proliferative rapamycin dose response curve,[7]; mycophenolic acid zero to one thousand nanomolar added to rapamycin,potentiates the anti-proliferative activity of rapamycin
CO[C@H]1C[C@@H]2CC[C@@H](C)[C@@](O)(O2)C(=O)C(=O)N2CCCC[C@H]2C(=O)O[C@H]([C@H](C)C[C@@H]2CC[C@@H](O)[C@H](OC)C2)CC(=O)[C@H](C)/C=C(\C)[C@@H](O)[C@@H](OC)C(=O)[C@H](C)C[C@H](C)/C=C/C=C/C=C/1C [rapamycin],"in vivo release of rapamycin, effect of topcoat",[4]; [9],BMA topcoat does slow the release of rapamycin
same,in vivo release rates of rapamycin from three rapamycin/cladribine coatings,"[4]; 600 μg EVA/BMA basecoats with varied rapamycin/cladribine loads, 200 μg BMA topcoat, Yorkshire pigs",substantially similar to one another
same,in vivo release rate of rapamycin compared with mycophenolic acid,"[4]; 600 μg PVDF basecoat, 200 μg PVDF topcoat",slower release rate than that of mycophenolic acid
same,drug remained in the drug coating,[4],~80%
CC[C@@]1(O)C(=O)OCc2c1cc1n(c2=O)Cc2cc3c(CN(C)C)c(O)ccc3nc2-1 [topotecan],cytotoxicity in cell viability assay,cell viability; concentrations up to one micromolar,non-cytotoxic
same,effect of topotecan on the anti-proliferative rapamycin dose response curves,[3]; topotecan 18.8 to 300 nanomolar added to rapamycin,potentiate the anti-proliferative activity of rapamycin; also recorded: increases the percent inhibition of rapamycin alone
CC(/C=C/C(=O)NO)=C\[C@@H](C)C(=O)c1ccc(N(C)C)cc1 [trichostatin A],anti-proliferative IC50's,tumor cell lines,low nM range
same,inhibition of human coronary artery smooth muscle cell proliferation,[8],completely inhibit
same,IC50,"[8]; human coronary artery smooth muscle cells, read-out: anti-proliferative IC50",~6 nM
